Peptide text beside a SMILES is read from it.
Legend:
[1] = Morphology / nanoparticle formation by TEM and SEM; assay type: physicochemical
Hep G2 cells = assay: In vitro cytotoxicity assay (EZ-Cytox); assay type: cell-based; conditions: Hep G2, 48 h; for cell viability at 500 µM / cell viability at 500 µM in 3% DMSO solution: relative to untreated group; for cell viability at 500 µM: n = 5-6, mean ± S.D.; for cell viability at 500 µM in 3% DMSO solution: n = 6
Procedure: The cytotoxicity of (Ac)FRRF, de-Boc-DTX, (Ac)FRRF-DTX NPs, PTXm and PTX were evaluated using the EZ-Cytox assay on Hep G2 cell. Hep G2 was cultured in a 96-well plate at concentrations of 5.0 × 10^3 cells/well and 1.0 × 10^4 cells/well, respectively, under conditions of 37℃ and 5% CO2 for 1 h. Subsequently, cells were cultured for 48 h with concentrations ranging from 0.1 to 500 µM of each drug. Cell viability (n = 5 − 6) was measured at 450 and 600 nm absorbance using the EZ-Cytox cell viability assay kit (Daeil Lab Service, Republic of Korea) and a microplate reader (SPECTROstar Nano spectrophotometer, BMG Labtech, Germany). Cell viability was calculated by comparing the absorbance values of the measured samples with those of the control group. Additionally, to more accurately confirm the cytotoxicity of DTX and PTX with low solubility in aqueous media for Hep G2 cell, both of drug were dissolved in a 3% DMSO solution and cultured for 48 h at concentrations ranging from 0.1 to 500 µM. Cell viability was determined using the same method.

Solubility assessment = conditions: for appearance of solution in 3% DMSO: 0.3 mg/mL in water (DW) with 3% DMSO; for appearance of solution in 3% DMSO / appearance of solution in 10% DMSO: visual images; for appearance of solution in 10% DMSO: 0.3 mg/mL in water with 10% DMSO
Procedure: The images aimed to observe how well these compounds dissolved in the solution. Additionally, an experiment was carried out to precisely determine the aqueous solubility values of (Ac)FRRF-DTX nanoparticles. […] […] Moreover, complementary experiments were performed to obtain accurate quantitative solubility values for (Ac)FRRF-DTX NPs.

[2] = target: T1, Cathepsin B from bovine spleen (Bos taurus, UniProt P07688); assay: Cathepsin B cleavage assay (RP-HPLC, LC-MS); assay type: in vitro ADME; conditions: 50 µM, 25 mM MES buffer, 37℃, RP-HPLC 245 nm
T1 construct: Cathepsin B from bovine spleen; purchased Sigma-Aldrich; host or cells: bovine spleen (tissue-derived enzyme)
From the text: Antibiotic antimycotic solution (100X), Bio TrackerTM 488 Green Microtubule Cytoskeleton Dye, Cathepsin B from bovine spleen, Dimethyl sulfoxide (DMSO), Dulbecco’s modified Eagle’s medium (DMEM), 1-ethyl-3-(3-dimethylaminopropyl) carbodiimide (EDCI), dichloromethane (DCM), ether, phosphate-buffered saline (PBS), rhodamine B isothiocyanate (RITC), 2-(4-amidi-nophenyl)-6-indolecarbamidine dihydrochloride (DAPI), Tetramethylsilane (TMS), Dimethyl sulfoxide-d6 (DMSO-d6) were purchased from Sigma-Aldrich (St. Louis, MO, USA). Paraformaldehyde solution 4% in PBS (PFA), PierceTM BCA Protein Assay Kit were obtained from Thermo Fisher Scientific (Waltham, MA, USA). EZ-Cytox kit was purchased from DoGenBio (Seoul, Republic of Korea). Fetal bovine serum (FBS), 0.5% Trypsin-EDTA (10X) were obtained from Gibico (Waltham, MA, USA). Neutral buffered formalin (10%) was purchased from HuBenTech (Damyang, Republic of Korea).
The cathepsin B-specific cleavage of (Ac)FRRF-DTX was analyzed using reverse-phase high-performance liquid chromatography (RP-HPLC), and the molecular weight of PTXm was determined by liquid chromatography-mass spectrometry (LC-MS). […] The cleavage profile of (Ac)FRRF-DTX NPs was analyzed at 245 nm using reversed-phase high-performance liquid chromatography (RP-HPLC) under solvent gradient conditions (from 90:10 H2O/acetonitrile to 10:90 H2O/acetonitrile over 40 min). […]

[3] = test system: microtubules in Hep G2 cells; assay: In vitro microtubule staining (BioTracker 488 Green Microtubule Cytoskeleton Dye); assay type: cell-based; conditions: Hep G2, 100 µM, 24 h, versus well-organized control
Procedure: To assess the cell death induced by PTX, PTXm, and (Ac)FRRF-DTX NPs in Hep G2 cells, an evaluation was conducted using the nucleic green reagent, and the results were visualized through imaging. Hep G2 cells cultured in high-glucose DMEM medium, maintain in a sample chamber with appropriate humidity, and kept at 37℃ with 5% CO2. The cells were cultured in 35 mm fluorescent cell culture dishes (SPL Life Science, Republic of Korea) at a concentration of 4 × 10^4 for 3 h. Subsequently, DTX, PTX, and (Ac)FRRF-DTX NPs were all treated at a concentration of 100 µM (in DMSO 2%) for 24 h. After sample treatment, cells were washed five times with DPBS solution, and in a light-protected environment, the medium was replaced with a mixture of microtubule reagent (Bio Tracker™ 488 Green Microtubule Cytoskeleton Dye, Sigma-Aldrich, MO, USA) in fresh medium at RT for 30 min. Following this, the medium was replaced with new DMEM containing 10% FBS, and images were captured using ECLIPSE Ti2 Series (Nikon, Japan) with a FITC filter and quantified using ImageJ (U.S. National Institutes of Health).

Hep G2 tumors = assay: In vivo antitumor test (Hep G2 xenograft); design: species or system BALB/c nude mice; conditions: for average tumor weight after 17 days / tumor size after 17 days: i.v. at 3 day intervals, PTX, de-Boc-DTX 5 mg/kg, NPs 10 mg/kg; for average tumor weight after 17 days: control 595.28 ± 282.98; for tumor size after 17 days: control 2161.12 ± 946.71; for TUNEL staining fluorescence intensity of tumor tissue: tumors after 17 days, ImageJ, relative to control group, n = 3
Procedure: All animal experiments were conducted in accordance with the standard regulations of the Konkuk University Animal Experimentation Ethics Committee (Ref: no. KU220748-1). Hep G2 cells at a concentration of 1.0 × 10^7 cells/100 µL were subcutaneously inoculated into the dorsal region at 6-week-old male BALB/c nude mice (Orient Bio, Seongnam, Republic of Korea). After […], when the tumor volume reached approximately 50 − 100 mm^3 (calculated as the maximum diameter × minimum diameter^2 × 0.52), the mice were divided into four groups. Mice with tumors were intravenously administered saline, de-Boc-DTX (5 mg/kg), PTX (5 mg/kg), or (Ac)FRRF-DTX NPs (10 mg/kg; based on 5 mg/kg of de-Boc-DTX) at 3 days intervals for a total of 17 days. The body weight and tumor volume of the treated mice were measured every other day using a digital caliper (ASIMETO, Mooresville, NC, USA). After 17 days of treatment, tumors were fixed with diluted 10% neutral pH formalin (HuBen Tech, Republic of Korea). Tumor tissues were stained with TUNEL, Ki-67, and H&E. Sections of tumor tissues stained with Ki-67 and H&E were observed using the OS-33DPM multimedia video microscope (OSUN HITECH, Republic of Korea). Additionally, tumor tissues stained with TUNEL were sliced for histological observation using an ECLIPSE Ti2 inverted microscope (Nikon, Japan), and FITC fluorescence intensity was quantified using ImageJ (U.S. National Institutes of Health) (n = 3).

[4] = In vivo blood toxicity assessment (hematology); conditions: normal mice, i.v.; PTX 1.5 mg/kg, NPs 3 mg/kg; blood after 7 days, n = 5
Procedure: Hematological analysis of red blood cell (RBC) and white blood cell (WBC) parameters in mice treated with (Ac)FRRF-DTX was performed through clinical pathological examinations. Normal saline (control group), de-Boc-DTX (1.5 mg/kg), PTX (1.5 mg/kg), and (Ac)FRRF-DTX NPs (3 mg/kg) were dissolved in 200 µL of normal saline and administered daily via tail vein. After 7 days, blood was drawn from the mice’s heart and collected in tubes containing EDTA to prevent coagulation. Subsequently, whole blood samples were stored for analysis. Level of RBC-related parameters (RBC, HGB, HCT, MCV, MHC, MCHC) and WBC-related parameters (WBC, PLT, NEU, LYM, MONO, EOS) were measured using a hematology analyzer (Sysmex XN series, Sysmex, Japan) (n = 5).

[5] = mouse, in vivo

Compound	morphology / nanoparticle formation [1]	cell viability at 500 µM (Hep G2 cells; without DMSO)	appearance of solution in 3% DMSO (Solubility assessment)	appearance of solution in 10% DMSO (Solubility assessment)	cell viability at 500 µM in 3% DMSO solution (Hep G2 cells)	appearance of microtubule structures [3]	average tumor weight after 17 days (Hep G2 tumors; n = 5-7)	tumor size after 17 days (Hep G2 tumors; n = 5-7)	TUNEL staining fluorescence intensity of tumor tissue (Hep G2 tumors)	histological toxicity in major organs (heart, liver, spleen, lungs, kidney) [5]	other results
CC(=O)N[C@@H](Cc1ccccc1)C(=O)N[C@@H](CCCNC(=N)N)C(=O)N[C@@H](CCCNC(=N)N)C(=O)N[C@@H](Cc1ccccc1)C(=O)O [(Ac)FRRF, acetylated Phe-Arg-Arg-Phe peptide] (Ac-FRRF-OH)	absence of nanoparticle formation	84.1 ± 6.6%	–	–	–	–	–	–	–	–	–
CC(=O)N[C@@H](Cc1ccccc1)C(=O)N[C@@H](CCCNC(=N)N)C(=O)N[C@@H](CCCNC(=N)N)C(=O)N[C@@H](Cc1ccccc1)C(=O)N[C@@H](c1ccccc1)[C@@H](O)C(=O)O[C@H]1C[C@@]2(O)[C@@H](OC(=O)c3ccccc3)[C@@H]3[C@]4(OC(C)=O)CO[C@@H]4C[C@H](O)[C@@]3(C)C(=O)[C@H](O)C(=C1C)C2(C)C [(Ac)FRRF-DTX, Acetylated Phenylalanine-Arginine-Arginine-Phenylalanine Docetaxel]	–	–	–	–	–	–	–	–	–	–	solubility in water (Solubility assessment; water without DMSO): 1.3 mg/20 µL; change of (Ac)FRRF-DTX in the absence of cathepsin B ([2]; 0-72 h, no cathepsin B): remained unchanged; nanoconversion of (Ac)FRRF-DTX to PTXm at 48 h ([2]; cathepsin B 50 µg/mL, 48 h): complete nanoconversion
CC(=O)O[C@@]12CO[C@@H]1C[C@H](O)[C@@]1(C)C(=O)[C@H](O)C3=C(C)[C@@H](OC(=O)[C@H](O)[C@@H](NC(=O)OC(C)(C)C)c4ccccc4)C[C@@](O)([C@@H](OC(=O)c4ccccc4)[C@H]21)C3(C)C [DTX, Docetaxel]	–	57.9 ± 8.9%	opaque or precipitated	clear	24.9 ± 4.6%	–	–	–	–	–	–
CC(=O)O[C@H]1C(=O)[C@@]2(C)[C@H]([C@H](OC(=O)c3ccccc3)[C@]3(O)C[C@H](OC(=O)[C@H](O)[C@@H](NC(=O)c4ccccc4)c4ccccc4)C(C)=C1C3(C)C)[C@]1(OC(C)=O)CO[C@@H]1C[C@@H]2O [PTX, paclitaxel]	–	55.5 ± 4.9%	opaque or precipitated	clear	27.4 ± 4.5%	indistinct	293.97 ± 164.22 mg	1029.79 ± 752.19 mm^3	183.71 ± 2.32%	no significant toxicity	body weight change (Hep G2 tumors; 17 days treatment, n = 5-7): no significant changes in body weight; white blood cell parameters (NEU, LYM, EOS concentrations) [4]: alterations in NEU, LYM and EOS concentrations
CC(=O)O[C@@]12CO[C@@H]1C[C@H](O)[C@@]1(C)C(=O)[C@H](O)C3=C(C)[C@@H](OC(=O)[C@H](O)[C@@H](NC(=O)[C@@H](N)Cc4ccccc4)c4ccccc4)C[C@@](O)([C@@H](OC(=O)c4ccccc4)[C@H]21)C3(C)C [PTXm]	–	40.9 ± 10.9%	–	–	–	indistinct	–	–	–	–	IC50 (Hep G2 cells; tested 0.1-500 µM, without DMSO): 214 µM
CC(=O)O[C@@]12CO[C@@H]1C[C@H](O)[C@@]1(C)C(=O)[C@H](O)C3=C(C)[C@@H](OC(=O)[C@H](O)[C@@H](N)c4ccccc4)C[C@@](O)([C@@H](OC(=O)c4ccccc4)[C@H]21)C3(C)C [de-Boc-DTX]	absence of nanoparticle formation	75.3 ± 5.4%	–	–	–	–	265.94 ± 298.69 mg	1262.19 ± 1209.27 mm^3	196.50 ± 4.25%	no significant toxicity	–
